Test results from the kinase profiling compilation of Christmann-Franck et al. (2016).
Values joined by “and” are separate entries in the source; they are usually repeats but may differ in a detail not shown here. Identical values can stand only once.

Tests used:
Assay in all cases: radiometric filter-binding kinase assay, Kinase HotSpot
Conditions in all cases: compound 0.5 µM; ATP 10 µM
ABL1 (human) = ABL1 (human) (UniProt P00519)
ACVR1B (human) = ACVR1B (human) (UniProt P36896)
ADRBK2 (human) = ADRBK2 (human) (UniProt P35626)
BMX (human) = BMX (human) (UniProt P51813)
CAMK1G (human) = CAMK1G (human) (UniProt Q96NX5)
CAMK2G (human) = CAMK2G (human) (UniProt Q13555)
CAMKK2 (human) = CAMKK2 (human) (UniProt Q96RR4)
CDK7 CCNH MNAT1 (human) = CDK7 CCNH MNAT1 (human) (UniProt P50613+P51948+P51946)
CSK (human) = CSK (human) (UniProt P41240)
CSNK2A1 (human) = CSNK2A1 (human) (UniProt P68400)
DAPK3 (human) = DAPK3 (human) (UniProt O43293)
DDR2 (human) = DDR2 (human) (UniProt Q16832)
DYRK1B (human) = DYRK1B (human) (UniProt Q9Y463)
DYRK3 (human) = DYRK3 (human) (UniProt O43781)
EPHA1 (human) = EPHA1 (human) (UniProt P21709)
ERBB4 (human) = ERBB4 (human) (UniProt Q15303)
GSG2 (human) = GSG2 (human) (UniProt Q8TF76)
IKBKB (human) = IKBKB (human) (UniProt O14920)
LYN (human) = LYN (human) (UniProt P07948)
MAP2K1 (human) = MAP2K1 (human) (UniProt Q02750)
MAP3K10 (human) = MAP3K10 (human) (UniProt Q02779)
MAP3K3 (human) = MAP3K3 (human) (UniProt Q99759)
MAP3K8 (human) = MAP3K8 (human) (UniProt P41279)
MAP3K9 (human) = MAP3K9 (human) (UniProt P80192)
MARK3 (human) = MARK3 (human) (UniProt P27448)
NEK3 (human) = NEK3 (human) (UniProt P51956)
NTRK3 (human) = NTRK3 (human) (UniProt Q16288)
PBK (human) = PBK (human) (UniProt Q96KB5)
PDGFRA (human) = PDGFRA (human) (UniProt P16234)
PLK2 (human) = PLK2 (human) (UniProt Q9NYY3)
PNCK (human) = PNCK (human) (UniProt Q6P2M8)
PRKCG (human) = PRKCG (human) (UniProt P05129)
PRKD1 (human) = PRKD1 (human) (UniProt Q15139)
RET (human) = RET (human) (UniProt P07949)
RIPK2 (human) = RIPK2 (human) (UniProt O43353)
ROS1 (human) = ROS1 (human) (UniProt P08922)
RPS6KA4 KD2 (human) = RPS6KA4 KD2 (human) (UniProt O75676)
SRPK2 (human) = SRPK2 (human) (UniProt P78362)
TAOK2 (human) = TAOK2 (human) (UniProt Q9UL54)
TEK (human) = TEK (human) (UniProt Q02763)
TNK2 (human) = TNK2 (human) (UniProt Q07912)
TXK (human) = TXK (human) (UniProt P42681)

Chain of TAOK2 (human) (Q9UL54 whole entry, looked up): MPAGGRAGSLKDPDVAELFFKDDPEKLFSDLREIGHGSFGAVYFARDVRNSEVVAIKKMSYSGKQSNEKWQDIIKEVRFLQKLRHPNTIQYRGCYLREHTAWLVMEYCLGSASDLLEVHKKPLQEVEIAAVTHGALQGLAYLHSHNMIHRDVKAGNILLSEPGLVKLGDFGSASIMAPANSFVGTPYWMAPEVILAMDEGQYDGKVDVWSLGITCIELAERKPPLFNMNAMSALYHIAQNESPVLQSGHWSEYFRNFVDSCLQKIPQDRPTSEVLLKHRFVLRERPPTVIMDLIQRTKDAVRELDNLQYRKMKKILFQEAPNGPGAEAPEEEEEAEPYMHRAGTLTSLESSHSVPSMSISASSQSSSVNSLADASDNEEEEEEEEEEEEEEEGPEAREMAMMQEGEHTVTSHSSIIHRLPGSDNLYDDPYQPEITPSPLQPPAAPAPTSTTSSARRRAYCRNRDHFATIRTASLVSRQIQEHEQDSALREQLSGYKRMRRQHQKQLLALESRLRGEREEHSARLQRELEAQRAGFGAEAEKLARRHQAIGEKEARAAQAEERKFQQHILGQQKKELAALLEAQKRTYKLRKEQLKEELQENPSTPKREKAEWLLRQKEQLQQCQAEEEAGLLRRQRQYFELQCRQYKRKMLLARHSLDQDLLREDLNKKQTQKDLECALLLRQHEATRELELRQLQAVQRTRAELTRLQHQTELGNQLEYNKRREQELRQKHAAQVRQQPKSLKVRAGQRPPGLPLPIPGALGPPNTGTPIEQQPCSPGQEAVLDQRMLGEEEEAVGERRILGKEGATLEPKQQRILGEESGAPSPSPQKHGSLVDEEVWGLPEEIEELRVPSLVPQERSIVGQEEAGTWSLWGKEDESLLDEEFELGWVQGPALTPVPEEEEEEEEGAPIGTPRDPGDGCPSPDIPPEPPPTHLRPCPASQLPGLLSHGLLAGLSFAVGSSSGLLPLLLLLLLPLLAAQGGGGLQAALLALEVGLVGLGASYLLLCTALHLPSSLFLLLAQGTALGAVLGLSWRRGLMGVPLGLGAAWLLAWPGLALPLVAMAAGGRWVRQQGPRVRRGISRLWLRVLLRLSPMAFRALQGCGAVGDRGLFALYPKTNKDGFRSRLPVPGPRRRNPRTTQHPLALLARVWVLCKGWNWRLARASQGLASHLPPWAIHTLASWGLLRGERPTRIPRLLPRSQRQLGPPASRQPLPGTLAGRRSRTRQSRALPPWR
Chain of DAPK3 (human) (O43293 whole entry, looked up): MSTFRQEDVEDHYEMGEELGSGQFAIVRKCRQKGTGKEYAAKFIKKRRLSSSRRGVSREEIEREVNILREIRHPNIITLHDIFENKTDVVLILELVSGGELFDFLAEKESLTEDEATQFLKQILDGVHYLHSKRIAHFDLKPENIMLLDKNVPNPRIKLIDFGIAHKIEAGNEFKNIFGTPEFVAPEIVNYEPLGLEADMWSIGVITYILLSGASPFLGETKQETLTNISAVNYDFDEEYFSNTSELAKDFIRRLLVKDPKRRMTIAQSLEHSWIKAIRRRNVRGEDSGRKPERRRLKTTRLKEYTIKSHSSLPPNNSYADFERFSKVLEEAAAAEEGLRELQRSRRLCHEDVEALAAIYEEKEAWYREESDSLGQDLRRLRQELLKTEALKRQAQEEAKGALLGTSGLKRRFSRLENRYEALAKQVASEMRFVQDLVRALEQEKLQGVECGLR
Chain of ADRBK2 (human) (P35626 whole entry, looked up): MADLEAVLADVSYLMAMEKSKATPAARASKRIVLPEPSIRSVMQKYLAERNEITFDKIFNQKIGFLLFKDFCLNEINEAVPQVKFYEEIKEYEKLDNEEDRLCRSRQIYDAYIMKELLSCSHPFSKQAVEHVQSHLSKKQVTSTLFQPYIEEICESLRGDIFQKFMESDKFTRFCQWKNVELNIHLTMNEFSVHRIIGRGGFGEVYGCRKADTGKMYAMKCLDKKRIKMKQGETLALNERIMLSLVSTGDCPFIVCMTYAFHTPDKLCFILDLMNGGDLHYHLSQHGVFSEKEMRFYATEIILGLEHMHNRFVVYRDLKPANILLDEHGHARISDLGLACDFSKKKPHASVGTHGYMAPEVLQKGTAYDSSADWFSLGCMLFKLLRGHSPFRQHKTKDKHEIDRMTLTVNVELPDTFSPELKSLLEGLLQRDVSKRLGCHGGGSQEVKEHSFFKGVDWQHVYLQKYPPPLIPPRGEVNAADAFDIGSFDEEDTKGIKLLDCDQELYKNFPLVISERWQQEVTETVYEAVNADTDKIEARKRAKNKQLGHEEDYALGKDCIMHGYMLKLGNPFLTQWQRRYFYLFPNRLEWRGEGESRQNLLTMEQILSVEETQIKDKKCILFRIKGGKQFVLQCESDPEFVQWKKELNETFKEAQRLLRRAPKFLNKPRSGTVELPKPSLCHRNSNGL
Chain of CSNK2A1 (human) (P68400 whole entry, looked up): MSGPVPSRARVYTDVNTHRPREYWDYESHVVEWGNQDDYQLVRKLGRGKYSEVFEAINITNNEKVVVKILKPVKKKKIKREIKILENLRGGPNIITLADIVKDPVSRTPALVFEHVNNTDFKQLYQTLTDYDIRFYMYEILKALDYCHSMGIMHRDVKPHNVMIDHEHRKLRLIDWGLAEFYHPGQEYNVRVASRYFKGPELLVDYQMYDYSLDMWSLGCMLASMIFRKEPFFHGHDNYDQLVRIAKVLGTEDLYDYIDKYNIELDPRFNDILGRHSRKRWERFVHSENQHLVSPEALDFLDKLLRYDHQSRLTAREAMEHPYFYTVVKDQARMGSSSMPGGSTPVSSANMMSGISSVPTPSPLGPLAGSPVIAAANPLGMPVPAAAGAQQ
Chain of MAP3K8 (human) (P41279 whole entry, looked up): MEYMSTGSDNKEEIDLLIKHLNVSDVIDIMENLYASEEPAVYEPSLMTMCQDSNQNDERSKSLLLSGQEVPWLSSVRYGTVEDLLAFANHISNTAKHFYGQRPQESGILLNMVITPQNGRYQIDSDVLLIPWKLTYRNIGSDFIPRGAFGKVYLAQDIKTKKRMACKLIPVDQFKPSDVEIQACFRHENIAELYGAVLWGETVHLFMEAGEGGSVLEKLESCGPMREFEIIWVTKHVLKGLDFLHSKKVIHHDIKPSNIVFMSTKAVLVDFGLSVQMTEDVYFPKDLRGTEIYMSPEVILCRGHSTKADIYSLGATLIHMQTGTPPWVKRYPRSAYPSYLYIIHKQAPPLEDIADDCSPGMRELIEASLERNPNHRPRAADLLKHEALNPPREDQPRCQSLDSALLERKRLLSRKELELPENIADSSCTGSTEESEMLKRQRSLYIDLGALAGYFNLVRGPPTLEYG
Chain of NTRK3 (human) (Q16288 whole entry, looked up): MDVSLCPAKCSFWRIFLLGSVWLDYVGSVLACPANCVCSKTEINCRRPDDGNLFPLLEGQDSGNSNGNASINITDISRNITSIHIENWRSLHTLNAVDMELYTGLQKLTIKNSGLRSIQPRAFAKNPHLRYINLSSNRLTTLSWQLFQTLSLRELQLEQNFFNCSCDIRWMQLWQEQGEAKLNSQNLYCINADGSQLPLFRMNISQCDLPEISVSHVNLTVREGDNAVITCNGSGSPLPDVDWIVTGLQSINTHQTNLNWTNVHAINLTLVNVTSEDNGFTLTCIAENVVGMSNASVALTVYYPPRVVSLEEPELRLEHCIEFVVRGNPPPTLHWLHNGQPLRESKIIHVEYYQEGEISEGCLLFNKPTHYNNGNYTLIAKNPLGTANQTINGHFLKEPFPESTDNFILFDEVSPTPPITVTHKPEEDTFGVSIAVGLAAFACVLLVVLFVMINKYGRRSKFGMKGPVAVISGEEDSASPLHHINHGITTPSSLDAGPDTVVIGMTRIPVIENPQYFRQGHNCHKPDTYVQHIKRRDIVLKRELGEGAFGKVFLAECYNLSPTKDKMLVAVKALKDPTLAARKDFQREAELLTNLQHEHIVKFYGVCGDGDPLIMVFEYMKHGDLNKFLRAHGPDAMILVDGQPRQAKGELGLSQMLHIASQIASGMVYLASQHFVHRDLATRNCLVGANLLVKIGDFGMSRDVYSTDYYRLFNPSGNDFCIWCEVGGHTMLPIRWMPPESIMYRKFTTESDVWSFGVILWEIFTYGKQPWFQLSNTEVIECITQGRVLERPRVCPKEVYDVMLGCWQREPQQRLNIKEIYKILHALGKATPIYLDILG
Chain of PLK2 (human) (Q9NYY3 whole entry, looked up): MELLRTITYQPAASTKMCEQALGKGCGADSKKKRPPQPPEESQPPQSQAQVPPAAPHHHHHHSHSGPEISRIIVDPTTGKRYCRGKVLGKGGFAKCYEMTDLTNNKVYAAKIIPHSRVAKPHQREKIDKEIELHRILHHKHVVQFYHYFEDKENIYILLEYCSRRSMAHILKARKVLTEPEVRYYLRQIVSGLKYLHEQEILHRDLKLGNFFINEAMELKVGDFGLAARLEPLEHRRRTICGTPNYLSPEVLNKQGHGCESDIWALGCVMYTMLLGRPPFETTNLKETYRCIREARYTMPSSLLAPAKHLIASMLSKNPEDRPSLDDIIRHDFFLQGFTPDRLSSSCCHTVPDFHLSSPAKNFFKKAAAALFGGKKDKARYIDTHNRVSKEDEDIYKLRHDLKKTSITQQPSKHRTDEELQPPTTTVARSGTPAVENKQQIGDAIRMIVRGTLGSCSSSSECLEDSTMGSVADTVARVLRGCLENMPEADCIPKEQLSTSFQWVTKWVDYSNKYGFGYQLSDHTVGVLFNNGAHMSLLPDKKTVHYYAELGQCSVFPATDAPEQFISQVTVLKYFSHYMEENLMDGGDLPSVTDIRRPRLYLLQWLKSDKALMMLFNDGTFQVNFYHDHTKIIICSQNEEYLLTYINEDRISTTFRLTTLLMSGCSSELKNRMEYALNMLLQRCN

Structure (SMILES): CN(C)c1ccc(/C=C2\C(=O)Nc3ccccc32)cc1
- residual activity (ABL1 (human)): 103%
- residual activity (ACVR1B (human)): 93.4%
- residual activity (ADRBK2 (human)): 98.9%
- residual activity (BMX (human)): 92.2%
- residual activity (CAMK1G (human)): 99.9%
- residual activity (CAMK2G (human)): 99.6%
- residual activity (CAMKK2 (human)): 100%
- residual activity (CDK7 CCNH MNAT1 (human)): 99.4%
- residual activity (CSK (human)): 96.9%
- residual activity (CSNK2A1 (human)): 89.7%
- residual activity (DAPK3 (human)): 101%
- residual activity (DDR2 (human)): 103%
- residual activity (DYRK1B (human)): 106%
- residual activity (DYRK3 (human)): 99.5%
- residual activity (EPHA1 (human)): 93.7%
- residual activity (ERBB4 (human)): 97.7%
- residual activity (GSG2 (human)): 88.5%
- residual activity (IKBKB (human)): 105%
- residual activity (LYN (human)): 108% and 97.8%
- residual activity (MAP2K1 (human)): 97.8%
- residual activity (MAP3K10 (human)): 96.6%
- residual activity (MAP3K3 (human)): 104%
- residual activity (MAP3K8 (human)): 99.6%
- residual activity (MAP3K9 (human)): 90.2%
- residual activity (MARK3 (human)): 101%
- residual activity (NEK3 (human)): 95.2%
- residual activity (NTRK3 (human)): 36.3%
- residual activity (PBK (human)): 101%
- residual activity (PDGFRA (human)): 79.9%
- residual activity (PLK2 (human)): 111%
- residual activity (PNCK (human)): 102%
- residual activity (PRKCG (human)): 96.8%
- residual activity (PRKD1 (human)): 100%
- residual activity (RET (human)): 78%
- residual activity (RIPK2 (human)): 87.8%
- residual activity (ROS1 (human)): 94.9%
- residual activity (RPS6KA4 KD2 (human)): 95.2%
- residual activity (SRPK2 (human)): 100%
- residual activity (TAOK2 (human)): 102%
- residual activity (TEK (human)): 102%
- residual activity (TNK2 (human)): 101%
- residual activity (TXK (human)): 96.1%

Structure (SMILES): COc1cc2ncnc(Nc3ccc(Oc4ccccc4)cc3)c2cc1OC
- residual activity (ABL1 (human)): 81.8%
- residual activity (ACVR1B (human)): 97.5%
- residual activity (ADRBK2 (human)): 91.8%
- residual activity (BMX (human)): 76.1%
- residual activity (CAMK1G (human)): 101%
- residual activity (CAMK2G (human)): 94%
- residual activity (CAMKK2 (human)): 104%
- residual activity (CDK7 CCNH MNAT1 (human)): 102%
- residual activity (CSK (human)): 18.8%
- residual activity (CSNK2A1 (human)): 114%
- residual activity (DAPK3 (human)): 96.9%
- residual activity (DDR2 (human)): 97.9%
- residual activity (DYRK1B (human)): 97%
- residual activity (DYRK3 (human)): 103%
- residual activity (EPHA1 (human)): 95.6%
- residual activity (ERBB4 (human)): 8.79%
- residual activity (GSG2 (human)): 92%
- residual activity (IKBKB (human)): 106%
- residual activity (LYN (human)): 21.6% and 42.6%
- residual activity (MAP2K1 (human)): 85.9%
- residual activity (MAP3K10 (human)): 96.7%
- residual activity (MAP3K3 (human)): 94.5%
- residual activity (MAP3K8 (human)): 68.9%
- residual activity (MAP3K9 (human)): 57.7%
- residual activity (MARK3 (human)): 108%
- residual activity (NEK3 (human)): 98.4%
- residual activity (NTRK3 (human)): 99.7%
- residual activity (PBK (human)): 92.6%
- residual activity (PDGFRA (human)): 88.8%
- residual activity (PLK2 (human)): 104%
- residual activity (PNCK (human)): 97.7%
- residual activity (PRKCG (human)): 84.6%
- residual activity (PRKD1 (human)): 95.6%
- residual activity (RET (human)): 40.6%
- residual activity (RIPK2 (human)): 55.5%
- residual activity (ROS1 (human)): 95.3%
- residual activity (RPS6KA4 KD2 (human)): 94.4%
- residual activity (SRPK2 (human)): 101%
- residual activity (TAOK2 (human)): 97.8%
- residual activity (TEK (human)): 99.7%
- residual activity (TNK2 (human)): 49%
- residual activity (TXK (human)): 78%

Structure (SMILES): COc1ccc2c(c1)c(C1=C(c3c[nH]c4ccccc34)C(=O)NC1=O)cn2CCCN(C)C
- residual activity (ABL1 (human)): 107%
- residual activity (ACVR1B (human)): 111%
- residual activity (ADRBK2 (human)): 96.3%
- residual activity (BMX (human)): 96.3%
- residual activity (CAMK1G (human)): 95%
- residual activity (CAMK2G (human)): 91.1%
- residual activity (CAMKK2 (human)): 82%
- residual activity (CDK7 CCNH MNAT1 (human)): 88%
- residual activity (CSK (human)): 84%
- residual activity (CSNK2A1 (human)): 95.9%
- residual activity (DAPK3 (human)): 75.5%
- residual activity (DDR2 (human)): 101%
- residual activity (DYRK1B (human)): 80%
- residual activity (DYRK3 (human)): 81%
- residual activity (EPHA1 (human)): 76.2%
- residual activity (ERBB4 (human)): 93.4%
- residual activity (GSG2 (human)): 93.5%
- residual activity (IKBKB (human)): 99.6%
- residual activity (LYN (human)): 112% and 94.2%
- residual activity (MAP2K1 (human)): 85%
- residual activity (MAP3K10 (human)): 83.4%
- residual activity (MAP3K3 (human)): 82.8%
- residual activity (MAP3K8 (human)): 93.8%
- residual activity (MAP3K9 (human)): 57.6%
- residual activity (MARK3 (human)): 92.2%
- residual activity (NEK3 (human)): 98.3%
- residual activity (NTRK3 (human)): 54.9%
- residual activity (PBK (human)): 96.8%
- residual activity (PDGFRA (human)): 85.2%
- residual activity (PLK2 (human)): 103%
- residual activity (PNCK (human)): 103%
- residual activity (PRKCG (human)): 54%
- residual activity (PRKD1 (human)): 68.8%
- residual activity (RET (human)): 79.9%
- residual activity (RIPK2 (human)): 70.2%
- residual activity (ROS1 (human)): 52.4%
- residual activity (RPS6KA4 KD2 (human)): 78.6%
- residual activity (SRPK2 (human)): 88%
- residual activity (TAOK2 (human)): 80.8%
- residual activity (TEK (human)): 102%
- residual activity (TNK2 (human)): 77.9%
- residual activity (TXK (human)): 82.8%
